These results are taken from patent publication US9415047B2, “Use of benzo five-membered nitrogen heterocyclic piperazine or piperidine derivatives” (Liaoning Emmy Biological Pharmaceutical Co., Ltd., priority 2012, dated 2016).

Assay [1] concerns AD constricted rabbit aorta. Briefly: Relaxing effects on vascular smooth muscle constricted by adrenaline hydrochloride (AD) in vitro. The conditions noted are these: relaxation of rabbit aorta constricted by adrenaline (10^−5 mol/L), mean±SEM, n=5; for EC50: Oryctolagus cuniculus. In outline: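 Rabbit aortic strips in K-H solution precontracted with adrenaline hydrochloride (10^−5 mol/L) after a reproducible second contraction; compounds added cumulatively over ranges from 1×10^−10 up to 1×10^−2 mol/L depending on the compound series. Relaxation expressed as % of maximal relaxation versus −log concentration, mean±SEM, n=5.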

In assay [2] the test system is NA constricted rabbit aorta. The assay can be described thus: Relaxing effects on vascular smooth muscle constricted by noradrenaline (NA) in vitro. The conditions noted are these: relaxation of rabbit aorta constricted by noradrenaline (10^−5 mol/L), mean±SEM, n=5; for EC50: Oryctolagus cuniculus. On the procedure:
Adrenaline hydrochloride (AD) (10^−5 mol/L) was added into a bath tube to induce constriction, when maximal constriction was achieved, the sample was completely flushed, K-H solution was changed for every 20 min. Contents in the tube was balanced for 60 min, when baseline recovered to be stable, noradrenaline bitartrate (NA) (10^−5 mol/L) was added to induce constriction. When the later maximal constriction response was basically consistent with the former one, the prepared compound solutions were subsequently added, including compound II-84 to II-123 solutions (1×10^−10-1×10^−2 mol/L), compound II-124 to II-157 solutions (1×10^−10-1×10^−3 mol/L), to record the waveforms. Relaxing percentage of the compound was used as Y axis, maximal relaxation response was 100%, negative logarithm of different concentration was used as X axis, to draw dose effect curve (expressed in mean±SEM ( ? ), n=5).

The test system of assay [3] is high kalium concentration constricted rabbit aorta. Briefly: Relaxing effects on vascular smooth muscle constricted by high kalium concentration in vitro. The conditions noted are these: relaxation of rabbit aorta constricted by high kalium solution (K+ 60 mmol/L), mean±SEM, n=5; for EC50: Oryctolagus cuniculus. On the procedure: Adrenaline hydrochloride (AD) (10^−5 mol/L) was added into a bath tube to induce constriction, when maximal constriction was achieved, the sample was completely flushed, K-H solution was changed for every 20 min. Contents in the tube was balanced for 60 min, when baseline recovered to be stable, K-H solution in the bath tube was replaced with high kalium concentration solution to induce constriction. When the later maximal constriction response was basically consistent with the former one, the prepared compound solutions were subsequently added, including compound II-1 to II-60 solutions (1×10^−8-1×10^−3 mol/L), compound II-84 to II-123 solutions (1×10^−10-1×10^−2 mol/L) and compound II-124 to II-157 solutions (1×10^−10-1×10^−3 mol/L), to record the waveforms. Relaxing percentage of the compound was used as Y axis, maximal relaxation response was 100%, negative logarithm of different concentration was used as X axis, to draw dose effect curve (expressed in mean±SEM ( ? ), n=5). Compounds II-2 and II-3 had the most obvious relaxing effects (FIG. 2 and FIG. 9).

In the case of `c1ccc2c(c1)nnn2CCCN1CCC(c2noc3ccccc23)CC1` [II-84, N-(3-(1H-benzotriazole-1-yl)propyl)-4-(3-benzisoxazolyl)piperidine], the EC50 was 0.589 µM in assay [1], 0.676 µM in assay [2] and 53.7 µM in assay [3].
For the molecule `Cc1ccc2c(C3CCN(CCCn4nnc5ccccc54)CC3)noc2c1` [II-86, N-(3-(1H-benzotriazole-1-yl)propyl)-4-(3-(6-methylbenzisoxazolyl))piperidine], the “−logEC50” value in assay [1] amounted to 5.45 ± 0.04; in assay [2] it was 5.26 ± 0.04; in assay [3] it was 4.09 ± 0.04.
Regarding `COc1ccc2c(C3CCN(CCCn4nnc5ccccc54)CC3)noc2c1` [II-87, N-(3-(1H-benzotriazole-1-yl)propyl)-4-(3-(6-methoxylbenzisoxazolyl))piperidine], the “−logEC50” value in assay [1] was 5.34 ± 0.03; in assay [2] it was 5.04 ± 0.03; in assay [3] it was 4.12 ± 0.03.
In the same order, the values of `Fc1ccc2c(C3CCN(CCCn4nnc5ccc(F)cc54)CC3)noc2c1` [II-88, N-(3-(6-fluoro-1H-benzotriazole-1-yl)propyl)-4-(3-(6-fluorobenzisoxazolyl))piperidine] are 5.61 ± 0.05, 5.73 ± 0.05 and 4.72 ± 0.05.
Regarding `Fc1ccc2c(C3CCN(CCCn4nnc5ccc(Cl)cc54)CC3)noc2c1` [II-89, N-(3-(6-chloro-1H-benzotriazole-1-yl)propyl)-4-(3-(6-fluorobenzisoxazolyl))piperidine], the “−logEC50” value in assay [1] is given as 5.42 ± 0.04; in assay [2] it was 5.22 ± 0.04; in assay [3], 4.12 ± 0.04.
On to `Cc1ccc2nnn(CCCN3CCC(c4noc5cc(F)ccc45)CC3)c2c1` [II-90, N-(3-(6-methyl-1H-benzotriazole-1-yl)propyl)-4-(3-(6-fluorobenzisoxazolyl))piperidine], for which the “−logEC50” value in assay [1] amounted to 5.38 ± 0.03; in assay [3], 4.28 ± 0.03. Besides, a half-maximal effect in assay [2] (EC50) was put at 4.47 µM.
Regarding `COc1ccc2nnn(CCCN3CCC(c4noc5cc(F)ccc45)CC3)c2c1` [II-91, N-(3-(6-methoxyl-1H-benzotriazole-1-yl)propyl)-4-(3-(6-fluorobenzisoxazolyl))piperidine], the “−logEC50” value in assay [1] is listed as 5.23 ± 0.05; in assay [3], 4.02 ± 0.05. The same molecule gave an EC50 in assay [2] of 4.9 µM.
Take `O=Cc1ccc2nnn(CCCN3CCC(c4noc5cc(F)ccc45)CC3)c2c1` [II-92, N-(3-(6-formoxyl-1H-benzotriazole-1-yl)propyl)-4-(3-(6-fluorobenzisoxazolyl))piperidine]: the results for the “−logEC50” value in assay [1] and in assay [3] were 5.56 ± 0.04 and 4.32 ± 0.04, respectively. The molecule further had an EC50 in assay [2] of 1.86 µM.
With `COc1ccc2nnn(CCCN3CCC(c4noc5ccccc45)CC3)c2c1` [II-93, N-(3-(6-methoxylbenzotriazolyl)propyl)-4-(3-benzisoxazolyl)piperidine], the “−logEC50” value in assay [1] worked out at 6.11 ± 0.07; in assay [3] it was 4.11 ± 0.03. Besides, the EC50 in assay [2] was 0.851 µM.
On to `COc1ccc2c(C3CCN(CCCCn4nnc5ccc(C#N)cc54)CC3)noc2c1` [II-97, N-(4-(6-cyanobenzotriazolyl)butyl)-4-(3-(6-methoxylbenzisoxazolyl))piperidine], for which the results for the “−logEC50” value in assay [1] and in assay [3] were 5.23 ± 0.06 and 3.23 ± 0.04, respectively. Moreover, a half-maximal response in assay [2] (EC50) required 8.13 µM.
Regarding `COc1ccc2nnn(OCCN3CCC(c4noc5cc(F)ccc45)CC3)c2c1` [II-98, N-(2-(6-methoxylbenzotriazolyl)ethoxyl)-4-(3-(6-fluorobenzisoxazolyl))piperidine], the EC50 in assay [1] was 93.3 µM; in assay [2], 49 µM; in assay [3] it was 295 µM.
With `Fc1ccc2c(C3CCN(CCOn4nnc5ccccc54)CC3)noc2c1` [II-99, N-(2-(1-benzotriazolyl)ethoxyl)-4-(3-(6-fluorobenzisoxazolyl))piperidine], the EC50 was 55 µM in assay [1], 91.2 µM in assay [2] and 550 µM in assay [3].
